Measurements published in patent US20220264877A1, “MICROBIOCIDAL PICOLINAMIDE DERIVATIVES” (SYNGENTA CROP PROTECTION AG, priority 2019, published 2022).

Legend:
[1] = system: Botryotinia fuckeliana (Botrytis cinerea); test: Botryotinia fuckeliana (Botrytis cinerea) / liquid culture (gray mould); format: cell-based; details: 200 ppm in the formulation, Vogels broth, 24° C., 3-4 days after application, vs untreated, read-out: disease control (inhibition of growth determined photometrically)
Description: (§1) Botryotinia fuckeliana (Botrytis cinerea)/Liquid Culture (Gray Mould) Conidia of the fungus from cryogenic storage are directly mixed into nutrient broth (Vogels broth). After placing a (DMSO) solution of test compound into a microtiter plate (96-well format), the nutrient broth containing the fungal spores is added. The test plates are incubated at 24° C. and the inhibition of growth is determined photometrically 3-4 days after application.

[2] = system: Monographella nivalis (Microdochium nivale); test: Monographella nivalis (Microdochium nivale) / liquid culture (foot rot cereals); format: cell-based; details: 200 ppm in the formulation, PDB potato dextrose broth, 24° C., 4-5 days after application, vs untreated, read-out: disease control (inhibition of growth determined photometrically)
Description: as §1, with “Monographella nivalis (Microdochium nivale)/liquid culture (foot rot cereals)” for “Botryotinia fuckeliana (Botrytis cinerea)/Liquid Culture (Gray Mould)”, “(PDB potato dextrose” for “(Vogels”, “4-5” for “3-4”

[3] = system: Mycosphaerella arachidis (Cercospora arachidicola); test: Mycosphaerella arachidis (Cercospora arachidicola) / liquid culture (early leaf spot); format: cell-based; details: 200 ppm in the formulation, PDB potato dextrose broth, 24° C., 4-5 days after application, vs untreated, read-out: disease control (inhibition of growth determined photometrically)
Description: as §1, with “Mycosphaerella arachidis (Cercospora arachidicola)/Liquid” for “Botryotinia fuckeliana (Botrytis cinerea)/Liquid”, “(Early Leaf Soot)” for “(Gray Mould)”, “(PDB potato dextrose” for “(Vogels”, “4-5” for “3-4”

[4] = system: Mycosphaerella graminicola (Septoria tritici); test: Mycosphaerella graminicola (Septoria tritici) / liquid culture (Septoria blotch); format: cell-based; details: Zymoseptoria tritici; 200 ppm in the formulation; PDB potato dextrose broth, 24° C., 4 to 5 days after application, vs untreated; read-out: disease control (inhibition of growth determined photometrically)
Description: as §1, with “Mycosphaerella graminicola (Septoria tritici)/Liquid” for “Botryotinia fuckeliana (Botrytis cinerea)/Liquid”, “(Septoria Blotch)” for “(Gray Mould)”, “(PDB potato dextrose” for “(Vogels”, “4 to 5” for “3-4”

[5] = system: Glomerella lagenarium (Colletotrichum lagenarium); test: Glomerella lagenarium (Colletotrichum lagenarium) / liquid culture (anthracnose); format: cell-based; details: Colletotrichum orbiculare; 200 ppm in the formulation; PDB potato dextrose broth, 24° C., 3 to 4 days after application, vs untreated; read-out: disease control (inhibition of growth measured photometrically)
Description: as §1, with “Glomerella lagenarium (Colletotrichum lagenarium)/Liquid” for “Botryotinia fuckeliana (Botrytis cinerea)/Liquid”, “(Anthracnose)” for “(Gray Mould)”, “(PDB potato dextrose” for “(Vogels”, “measured” for “determined”, “3 to 4” for “3-4”

[6] = system: Plasmopara viticola; format: in vivo; details: 200 ppm in the formulation; grape vine leaf disks, inoculated 1 day after application, assessed 6 to 8 days after application, vs untreated
[7] = system: Pythium ultimum; test: Pythium ultimum / liquid culture (seedling damping off); format: cell-based; details: Globisporangium ultimum; 200 ppm in the formulation; PDB potato dextrose broth, 24° C., 2-3 days after application, vs untreated; read-out: disease control (inhibition of growth determined photometrically)
Description: Pythium ultimum/Liquid Culture (Seedling Damping Off) Mycelia fragments and oospores of a newly grown liquid culture of the fungus are directly mixed into nutrient broth (PDB potato dextrose broth). After placing a (DMSO) solution of test compound into a microtiter plate (96-well format), the nutrient broth containing the fungal mycelia/spore mixture is added. The test plates are incubated at 24° C. and the inhibition of growth is determined photometrically 2-3 days after application.

CC(C)C(=O)OCOc1c(N)ccnc1C(=O)N[C@@H](C)C(=O)OC(C)C(c1ccc(F)cc1)c1ccc(F)cc1 (stereo partly drawn) [I.y.42, [4-amino-2-[[(1S)-2-[2,2-bis(4-fluorophenyl)-1-methyl-ethoxy]-1-methyl-2-oxo-ethyl]carbamoyl]-3-pyridyl]oxymethyl 2-methylpropanoate]
inhibition at 200 ppm [1]: ≥ 80%
inhibition at 200 ppm [2]: ≥ 80%
inhibition at 200 ppm [3]: ≥ 80%
inhibition at 200 ppm [4]: ≥ 80%

CC(C)C(=O)OCOc1c(NC=O)ccnc1C(=O)N[C@@H](C)C(=O)OC(C)C(c1ccccc1)c1ccccc1 (stereo partly drawn) [Compound I.k.33, [4-formamido-2-[[(1S)-1-methyl-2-(1-methyl-2,2-diphenyl-ethoxy)-2-oxo-ethyl]carbamoyl]-3-pyridyl]oxymethyl 2-methylpropanoate]
inhibition at 200 ppm [1]: ≥ 80%
inhibition at 200 ppm [5]: ≥ 80%
inhibition at 200 ppm [2]: ≥ 80%
inhibition at 200 ppm [3]: ≥ 80%
inhibition at 200 ppm [4]: ≥ 80%

CC(C)C(=O)OCOc1c(NC=O)ccnc1C(=O)N[C@@H](C)C(=O)OC(C)C(c1ccc(F)cc1)c1ccc(F)cc1 (stereo partly drawn) [Compound I.k.42, [2-[[(1S)-2-[2,2-bis(4-fluorophenyl)-1-methyl-ethoxy]-1-methyl-2-oxo-ethyl]carbamoyl]-4-formamido-3-pyridyl]oxymethyl 2-methylpropanoate]
inhibition at 200 ppm [1]: ≥ 80%
inhibition at 200 ppm [5]: ≥ 80%
inhibition at 200 ppm [2]: ≥ 80%
inhibition at 200 ppm [3]: ≥ 80%
inhibition at 200 ppm [4]: ≥ 80%

CC(C)C(=O)OCOc1c(N)ccnc1C(=O)N[C@@H](C)C(=O)OC(C)C(c1ccccc1)c1ccccc1 (stereo partly drawn) [I.y.33, [4-amino-2-[[(1S)-1-methyl-2-(1-methyl-2,2-diphenyl-ethoxy)-2-oxo-ethyl]carbamoyl]-3-pyridyl] oxymethyl 2-methylpropanoate]
inhibition at 200 ppm [1]: ≥ 80%
inhibition at 200 ppm [2]: ≥ 80%
inhibition at 200 ppm [3]: ≥ 80%
inhibition at 200 ppm [4]: ≥ 80%

CC(OC(=O)[C@H](C)NC(=O)c1nccc(NC=O)c1O)C(c1ccc(F)cc1)c1ccc(F)cc1 (stereo partly drawn) [Compound I.a.42, [2,2-bis(4-fluorophenyl)-1-methyl-ethyl] (2S)-2-[(4-formamido-3-hydroxy-pyridine-2-carbonyl)amino] propanoate]
inhibition at 200 ppm [1]: ≥ 80%
inhibition at 200 ppm [2]: ≥ 80%
inhibition at 200 ppm [3]: ≥ 80%
inhibition at 200 ppm [4]: ≥ 80%
disease control [6]: at least 80%
inhibition at 200 ppm [7]: ≥ 80%
melting point: 101 to 113 °C

CC(OC(=O)[C@H](C)NC(=O)c1nccc(N)c1O)C(c1ccc(F)cc1)c1ccc(F)cc1 (stereo partly drawn) [I.w.42, [2,2-bis(4-fluorophenyl)-1-methyl-ethyl] (2S)-2-[(4-amino-3-hydroxy-pyridine-2-carbonyl)amino]propanoate]
inhibition at 200 ppm [1]: ≥ 80%
inhibition at 200 ppm [5]: ≥ 80%
inhibition at 200 ppm [2]: ≥ 80%
inhibition at 200 ppm [3]: ≥ 80%
inhibition at 200 ppm [4]: ≥ 80%
